# Experiments:
# Assay type in all cases: in vivo
# Parameters in all cases: key: 0: no effect; 10-25% kill; 26-35% kill; 36-45% kill; 46-55% kill; 56-65% kill; 66-75% kill; 76-85% kill; 86-99% kill; 9: 100% kill
# [1] = system: Spodoptera eridania, 3rd instar larvae, southern armyworm; experiment: Southern armyworm 3rd instar test, dipped limabean leaf; conditions: for ARMYWORM Day 3: rating at 3 days; for ARMYWORM Day 5: rating at 5 days
# Protocol: (§1) Test solutions are prepared by dissolving the test compound in a 35% acetone in water mixture to give a concentration of 10,000 ppm. Subsequent dilutions are made with water as needed.
# Spodoptera eridania, 3rd instar larvae, southern armyworm
# A Sieva limabean leaf expanded to 7-8 cm in length is dipped in the test solution with agitation for 3 seconds and allowed to dry in a hood. The leaf is then placed in a 100 x 10 mm petri dish containing a damp filterpaper on the bottom and ten 3rd instar caterpillars. At 3 and 5 days, observations are made of mortality, reduced feeding, or any interference with normal molting.
# (§2) All of the above tests are rated according to the rating scale shown below.
# [2] = system: Spodoptera eridania, 3rd instar larvae, southern armyworm; experiment: Southern armyworm systemic uptake (stem systemic) test; conditions: cut stem in emulsion 3 days
# From the text: Spodoptera eridania, systemic uptake, 3rd instar larvae, southern armyworm
# Subsequent 10-fold dilutions are made with water as needed. Sieva limabean plants, with the primary leaves expanded to a length of 7-8 cm, are cut off at least 3 cm above the soil level to avoid contamination with soil bacteria which will cause decay of the stem during the test. The cut stem is placed in the test emulsion and wrapped with a bit of cotton to hold the stem off the bottom of the bottle and to limit evaporation. The treated stem is thus maintained for 3 days at 27° C to allow the test compound to be taken up into the plant. Following this, one leaf is removed from the plant and placed in a 100 x 10 mm petri dish with 10 southern armyworms as described above. Mortality counts and observations of feeding damage are made 3 and 5 days later.
# as §2
# [3] = system: Heliothis virescens, 3rd instar tobacco budworm; experiment: Tobacco budworm 3rd instar test, dipped cotton cotyledons; conditions: mortality rating after 3 days
# Protocol: as §1
# Heliothis virescens, 3rd instar tobacco budworm
# Cotton cotyledons are dipped in the test solution and allowed to dry in a hood. When dry, each is cut into quarters and ten sections are placed individually in 30 mL plastic medicine cups containing a 5-7mm long piece of damp dental wick. One 3rd instar caterpillar is added to each cup and the cup is sealed with MYLAR® film. Treatments are maintained for 3 days before a mortality count and observation of reduction in feeding damage are made.
# as §2
# [4] = system: Heliothis virescens, egg, tobacco budworm; experiment: Tobacco budworm egg test, dipped cotton leaf and eggs; conditions: mortality rating after 3 days
# Protocol: as §1
# Heliothis virescens, egg, tobacco budworm
# A young cotton leaf about 6-7cm in length is dipped in an agitated test suspension for about 3 seconds. Eggs are collected on a cheesecloth and the cloth is cut into 10-20mm squares, each containing approximately 50-100 eggs which are 6-30 hours old. The egg-containing cheesecloth square is similarly dipped in a test suspension and placed on a treated cotton leaf. The combination is dried in a hood and then placed in an 8 ounce Dixie® cup #2168-ST (240ml volume, 6cm tall, 9.5cm top diameter, 8.0cm bottom diameter) into which a 5cm length of damp dental wick has been placed. The cup is covered with a clear plastic lid and held for 3 days, after which mortality counts are made.
# as §2
# [5] = system: Diabrotic undecimpunctata howardi, 3rd instar southern corn rootworm; experiment: Southern corn rootworm soil test; conditions: mortality rating after 6 days
# Protocol: Diabrotic undecimpunctata howardi, 3rd instar southern corn rootworm
# One cc of fine talc is placed in a 30 mL wide-mouth screw-top glass jar. One mL of the appropriate acetone test solution is pipetted onto the talc so as to provide 1.25 and 0.25 mg of active ingredient per jar. The jars are set under a gentle air flow until the acetone is evaporated. The dried talc is loosened, 1 cc of millet seed is added to serve as food for the insects and 25 mL of moist soil is added to each jar. The jar is capped and the contents thoroughly mixed on a Vortex Mixer. Following this, ten 3rd instar rootworms are added to each jar and the jars are loosely capped to allow air exchange for the larvae. The treatments are held for 6 days when mortality counts are made. Missing larvae are presumed dead, since they decompose rapidly and can not be found. The concentrations used in this test correspond approximately to 50 and 10 kg/ha, respectively.
# as §2
# [6] = system: Spodoptera eridania, 3rd instar larvae, southern armyworm; experiment: Southern armyworm 7-day residual test; conditions: R designates Residual: 7-day residual foliage, concentration not given; for ARMYWORM Day 3 R: rating at 3 days; for ARMYWORM Day 5 R: rating at 5 days
# Protocol: as §1
# Spodoptera eridania, 3rd instar larvae, southern armyworm, 7-day residual
# The limabean leaves treated in the above test are maintained under high intensity lamps in the greenhouse for 7 days. These lamps duplicate the effects of a bright sunny day in June in New Jersey and are kept on for 14 hour day length. After 7 days, the foliage is sampled and assayed as in the above-said test.
# as §2
SMILES,ARMYWORM Day 3 ([1]; 10 ppm),ARMYWORM Day 5 ([1]; 10 ppm),ARMYWORM Day 3 ([1]; 100 ppm),ARMYWORM Day 5 ([1]; 100 ppm),ARMYWORM Day 3 ([1]; 1000 ppm),ARMYWORM Day 5 ([1]; 1000 ppm),ARMYWORM Stem Sys [2],TOBACCO BUDWORM 3rd Instar ([3]; 1000 ppm),TOBACCO BUDWORM Egg ([4]; 1000 ppm),SOUTHERN CORN ROOTWORM ([5]; 50 (ppm as headed)),ARMYWORM Day 3 R [6],ARMYWORM Day 5 R [6],TOBACCO BUDWORM 3rd Instar ([3]; 100 ppm),TOBACCO BUDWORM 3rd Instar ([3]; 10 ppm),TOBACCO BUDWORM Egg ([4]; 100 ppm),TOBACCO BUDWORM Egg ([4]; 300 ppm),SOUTHERN CORN ROOTWORM ([5]; 1 (ppm as headed)),SOUTHERN CORN ROOTWORM ([5]; 10 (ppm as headed))
CSCn1c(Br)c(Br)c(C#N)c1SC [Example 43],0,0,0,0,9 (100% kill),9 (100% kill),0,0,0,0,,,,,,,,
N#Cc1c(Br)c(C(F)(F)F)n(CSc2nc3ccccc3[nH]2)c1-c1ccc(Cl)cc1 [Example 9],,,0,0,6 (66-75% kill),7 (76-85% kill),0,0,0,0,9 (100% kill),9 (100% kill),0,,,,,
N#Cc1c(Br)c(Br)n(CSCc2ccccc2)c1Br [Example 40],0,0,0,0,9 (100% kill),9 (100% kill),0,0,0,0,0,,0,,,,,
N#Cc1c(Br)c(Br)n(CSC(=N)N)c1Br [Example 20],0,0,9 (100% kill),9 (100% kill),9 (100% kill),9 (100% kill),,9 (100% kill),0,0,6 (66-75% kill),,0,0,0,0,,
N#Cc1c(Br)c(C(F)(F)F)n(CSc2nc3ccccc3o2)c1-c1ccc(Cl)cc1 [Example 6],0,,9 (100% kill),,9 (100% kill),,0,,0,,9 (100% kill),9 (100% kill),,0,,,0,
CC(C)OP(=S)(OC(C)C)SCn1c(-c2ccc(Cl)cc2)c(C#N)c(Br)c1C(F)(F)F [Example 27],0,0,9 (100% kill),9 (100% kill),9 (100% kill),9 (100% kill),0,9 (100% kill),0,9 (100% kill),9 (100% kill),9 (100% kill),7 (76-85% kill),0,,,6 (66-75% kill),7 (76-85% kill)
CCN(CC)C(=S)SCn1c(-c2ccc(Cl)cc2)c(C#N)c(Br)c1C(F)(F)F [Example 26],9 (100% kill),9 (100% kill),9 (100% kill),9 (100% kill),9 (100% kill),9 (100% kill),0,9 (100% kill),0,,9 (100% kill),9 (100% kill),9 (100% kill),9 (100% kill),,,0,
N#Cc1c(Br)c(C(F)(F)F)n(CS(=O)(=O)c2ccccc2)c1-c1ccc(Cl)cc1 [Example 46],0,0,0,0,9 (100% kill),9 (100% kill),0,,0,8 (86-99% kill),4 (46-55% kill),9 (100% kill),,,,,0,0
CN(C)C(=S)SCn1c(Cl)c(Cl)c(C#N)c1-c1ccc(Cl)c(Cl)c1 [Example 32],0,0,,,,,0,0,0,0,0,0,0,,,,,
CN(C)C(=S)SCn1c(Br)c(Br)c(C#N)c1Br [Example 31],0,0,9 (100% kill),9 (100% kill),9 (100% kill),9 (100% kill),0,6 (66-75% kill),0,0,9 (100% kill),9 (100% kill),,,,,,
